Earlier results as cited in patent US20220160797A1 (North Carolina State University, priority 2019, published 2022).

System: L. acidophilus NCFM
Details: grown on esculin compared to lactose

With `O=c1ccc2cc(O[C@@H]3O[C@H](CO)[C@@H](O)[C@H](O)[C@H]3O)c(O)cc2o1` [esculin] as the compound, how does the “up-regulation of gene lba0753” value read?
Its value is 2.3 log2.
